{"source": "ChEMBL document CHEMBL2074010", "about": "“Transport function and hepatocellular localization of mrp6 in rat liver” (Mol Pharmacol, 2000)"}
{"target": "ATP-binding cassette sub-family C member 2 (Rattus norvegicus, UniProt Q63120)", "sequence (Q63120 whole entry)": "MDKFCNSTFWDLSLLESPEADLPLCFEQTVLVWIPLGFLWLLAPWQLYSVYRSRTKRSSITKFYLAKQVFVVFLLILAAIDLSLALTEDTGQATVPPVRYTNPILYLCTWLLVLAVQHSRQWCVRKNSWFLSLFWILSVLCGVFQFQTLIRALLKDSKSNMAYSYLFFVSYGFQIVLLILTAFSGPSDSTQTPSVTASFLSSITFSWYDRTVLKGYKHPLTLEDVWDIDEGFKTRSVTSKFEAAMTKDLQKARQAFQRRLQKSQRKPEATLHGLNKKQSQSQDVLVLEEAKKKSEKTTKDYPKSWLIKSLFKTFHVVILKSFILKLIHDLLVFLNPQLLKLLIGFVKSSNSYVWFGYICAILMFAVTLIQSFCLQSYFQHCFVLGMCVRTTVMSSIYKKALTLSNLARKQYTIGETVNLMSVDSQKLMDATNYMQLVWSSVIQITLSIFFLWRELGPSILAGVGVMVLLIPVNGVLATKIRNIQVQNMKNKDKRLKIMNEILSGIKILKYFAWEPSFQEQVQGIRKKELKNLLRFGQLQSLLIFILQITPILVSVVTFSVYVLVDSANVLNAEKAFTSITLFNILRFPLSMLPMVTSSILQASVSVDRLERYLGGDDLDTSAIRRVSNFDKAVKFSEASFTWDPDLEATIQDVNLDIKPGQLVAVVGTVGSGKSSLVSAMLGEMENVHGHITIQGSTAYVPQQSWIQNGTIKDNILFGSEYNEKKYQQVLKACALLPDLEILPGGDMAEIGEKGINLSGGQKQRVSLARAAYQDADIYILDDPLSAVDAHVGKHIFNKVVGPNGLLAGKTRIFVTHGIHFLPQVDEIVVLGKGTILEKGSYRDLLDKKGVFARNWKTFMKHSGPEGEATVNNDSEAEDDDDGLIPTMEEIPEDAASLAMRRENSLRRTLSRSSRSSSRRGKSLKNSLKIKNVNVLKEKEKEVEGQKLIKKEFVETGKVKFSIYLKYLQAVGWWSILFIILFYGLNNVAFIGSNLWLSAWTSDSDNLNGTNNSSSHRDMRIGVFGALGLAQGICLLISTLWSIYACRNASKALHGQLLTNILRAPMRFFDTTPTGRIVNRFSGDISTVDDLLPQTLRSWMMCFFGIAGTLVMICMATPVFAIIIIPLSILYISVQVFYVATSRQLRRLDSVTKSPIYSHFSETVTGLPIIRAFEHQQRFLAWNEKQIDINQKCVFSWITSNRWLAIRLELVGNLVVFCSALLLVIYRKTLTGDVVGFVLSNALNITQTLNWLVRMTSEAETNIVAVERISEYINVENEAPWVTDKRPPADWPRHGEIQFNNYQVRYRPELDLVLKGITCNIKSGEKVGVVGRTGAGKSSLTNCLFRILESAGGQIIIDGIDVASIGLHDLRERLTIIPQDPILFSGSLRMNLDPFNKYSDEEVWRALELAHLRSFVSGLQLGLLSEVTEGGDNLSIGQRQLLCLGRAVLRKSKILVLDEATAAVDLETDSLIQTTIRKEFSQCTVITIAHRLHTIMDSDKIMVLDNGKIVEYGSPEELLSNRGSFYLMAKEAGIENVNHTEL", "assay": "TP_TRANSPORTER: uptake in membrane vesicles from Mrp2-expressing Sf9 cells", "format": "functional, cell membranes, Membrane vesicle"}
{"smiles": "CCCCC/C=C\\C\\C=C/C=C/C=C/[C@@H](SC[C@@H](NC(=O)CC[C@H](N)C(=O)O)C(=O)NCC(=O)O)[C@@H](O)CCCC(=O)O", "note": "[LEUKOTRIEN C4]", "Activity": "is not a substrate [-]"}
{"smiles": "C[C@]12CC[C@@H]3c4ccc(O)cc4CC[C@H]3[C@@H]1CC[C@@H]2O[C@@H]1O[C@H](C(=O)O)[C@@H](O)[C@H](O)[C@H]1O", "note": "[ESTRADIOL 17B GLUCURONIDE]", "Activity": "is not a substrate [-]"}
{"smiles": "CC[C@H](C)[C@H](NC(=O)[C@H](CC(=O)O)NC(=O)[C@H](CC(C)C)NC(=O)[C@H](Cc1cnc[nH]1)NC(=O)[C@@H]1CSSC[C@H](N)C(=O)N[C@@H](CO)C(=O)N[C@H]2CSSC[C@H](NC(=O)[C@H](CCC(=O)O)NC(=O)[C@H](CCCCN)NC(=O)[C@H](CC(=O)O)NC(=O)[C@H](CCSC)NC(=O)[C@H](CC(C)C)NC(=O)[C@H](CO)NC(=O)[C@H](CO)NC2=O)C(=O)N[C@@H](C(C)C)C(=O)N[C@@H](Cc2ccc(O)cc2)C(=O)N[C@@H](Cc2ccccc2)C(=O)N1)C(=O)N[C@H](C(=O)N[C@@H](Cc1c[nH]c2ccccc12)C(=O)O)[C@@H](C)CC", "note": "[ENDOTHELIN]", "Activity": "substrate [+]"}
{"smiles": "N[C@@H](CCC(=O)N[C@H](CSc1ccc([N+](=O)[O-])cc1[N+](=O)[O-])C(=O)NCC(=O)O)C(=O)O", "Activity": "is not a substrate [-]"}
